Test results as given in patent US20230346931A1, “ALTERNATIVE SURFACTANTS AS STABILIZERS FOR THERAPEUTIC PROTEIN FORMULATIONS” (Hoffmann-La Roche Inc., priority 2020, published 2023).
Blank lines part the entries; values can stand above or below the compound they belong to.

Key:
Assay type in all cases: physicochemical
model mAb = experiment: Thermal conformational protein stability in presence of surfactants (nanoDSF); conditions: for effect on mAbs' conformational stability: elevated surfactant concentrations; for change of Tm1: surfactant 10 mg/mL; for change in thermal conformational stability properties: already at lower concentrations of 0.1 & mg/mL
From the text: Conformational protein stability was investigated with the Prometheus NT.Plex (NanoTemper Technologies GmbH, München, Germany). The device allows the label-free fluorimetric analysis of the change in intrinsic protein fluorescence from aromatic tryptophan and tyrosine residues by using small quantities of solution. Thermal induced protein unfolding was monitored by detecting the emission shift at 330 nm and 350 nm at a laser power of 5%. The nanoDSF grade standard capillary chips (NanoTemper Technologies, München, Germany) were filled with 10 μL of freshly prepared (t0) formulation containing 25 mg/mL mAb compounded with either 0.01, 0.1, 1 or 10 mg/mL of the specific surfactant. Sodium dodecyl sulfate (SDS) was taken as positive control since the charge as been reported to lead to destabilization of proteins presumably by chare-charge interactions. Samples were heated from 25 to 95° C. with a constant heating ramp of 0.5° C. per minute. The PR.StabilityAnalysis software (NanoTemper Technologies, München, Germany) automatically calculated the onset (Ton) and first transition point (Tm1) temperature of the melting curve. Data reported are the mean value of three individual measurements.
Stability indicating parameters being the onset temperature (Ton) of unfolding and the first melting transition (Tm1) were measured for the model mAb in presence of surfactants at concentrations ranging from 0.01 mg/mL to 10 mg/mL (see FIG. 4).

mAb 1 [1] = experiment: Protein stability in presence of surfactants after mechanical stresses (shaking, freeze-thaw) and thermal stress, mAb 1; conditions: for particle formation upon shaking: 200 rpm, 7 days, 5° C. and 25° C.; for SVP ≥10 μm per container after shaking: criteria of maximum 6,000 particles≥10 μm per container
Method: (§1) Surfactant performance screens were carried out with 0.1 and 1 mg/mL of the surfactant in the formulation of the model mAb described within the Materials section. After compounding the liquid samples were sterile filtered through 0.22 μm Millex Sterivex™ GV (Millipore, Bedford, USA) filter units, filled into 6 mL type 1 glass vials and closed with Ø 20 mm teflon® coated serum stoppers (DAIKYO Seiko Ltd., Tokyo, Japan). The stoppered vials were crimped using an aluminum cap (Infochroma AG, Goldau, Switzerland). The corresponding placebo formulations were equally prepared, formulated and used as respective controls.
To evaluate the effects of the surfactants on the mAb's stability the formulations were exposed to various interfacial stress conditions like agitation and various freeze-thaw cycles. Shaking stress was carried by placing the vials horizontally for seven days at 5° C. and 25° C. protected from light within a shaker (HS 260 Control Model; IKA Werke GmbH & Co. KG; Staufen, Germany) at constant 200 rounds per minute (rpm). Freeze-thaw (F/T) stress was performed by exposing the vials to five consecutive cycles of freezing at −20° C. and thawing at 5° C.
(§2) Thermal stability data was generated by storing the liquid protein formulations for up to 24 months (mo) at 5° C., for 6 months at 25° C./60% relative humidity (rH) and 12 weeks at 40° C./75% rH. Samples were analyzed at initial time point (t0) and after 1 mo, 3 mo, 6 mo, 12 mo, 18 mo and 24 months of storage using the subsequently described analytical methods
Enhanced visual inspection was performed as previously described using a Seidenader V 90-T machine (Seidenader Maschinenbau GmbH, Markt Schwaben, Germany)[58]. The number of particles were categorized into four classes: class (I) is equivalent to 0 particles, class (II) is equivalent to 1-5 particles, class (III) is equivalent to 6-10 particles and class (IV) is equivalent to >10 particles.
Turbidity was determined as previously described in literature and according to Ph. Eur. 2.2.1 using a 2100AN turbidimeter (Hach Lange GmbH, Dusseldorf, Germany) calibrated with a StablCal® calibration kit (Hach Lange GmbH). Results were given as Nephelometic Turbidity Units (NTU).
The color of the solutions was assessed by means of a LICO 690 Colorimeter (Hach Lange GmbH). Classification was performed according to the color scale described in Ph. Eur. 2.2.2.. Data presented herein show the degree of color change according to color scale values of Ph.Eur. 2.2.2: class (I) is equivalent to color scale values of 9, 8, 7, or colorless; class (II) is equivalent to color scale values of 6 or 5; class (III) is equivalent to color scale values of 4 or 3; and class (IV) is equivalent to color scale values of 2 or 1.
Sub-visible particle (SVP) count was measured by means of light obscuration using a HIAC 9703+ liquid particle counting system (Skan AG, Allschwil, Switzerland) and PharmSpec 3 (Hach Lange GmbH) software. The applied measurement technique was adapted from the method described in Ph.Eur. 2.9.19 [61] and USP <787>[62]. After rinsing the system with sample solution, four runs with a sample volume of 0.2 mL were performed. The final cumulative particle count was obtained by calculating the mean ±SD (standard deviation) from the last three measurements. SVP bigger than or equal to 2, 5, 10 and 25 μm were measured and presented as cumulative counts per mL of solution.
Detection of soluble mAb aggregates, in the following referred to as high molecular weight species (HMWS), the monomer and the low molecular weight species (LMWs) were analyzed by SE-HPLC. The utilized system comprised an Alliance 2695 HPLC instrument equipped with a 2487 UV detector (both from Waters Corporation, Milford, MA). The autosampler temperature was set to 5° C. and the system was loaded with total 100 μg of the mAb. […]

mAb 1 [2] = experiment: Long-term protein stability (storage at 5° C. and 25° C.), mAb 1; conditions: higher concentrations
Method: as §1
as §2, with “methods […]” for “methods”
Turbidity was determined as previously described in literature and according to Ph. […]
The color of the solutions was assessed by means of a LICO 690 Colorimeter (Hach Lange GmbH). […]
Sub-visible particle (SVP) count was measured by means of light obscuration using a HIAC 9703+ liquid particle counting system (Skan AG, Allschwil, Switzerland) and PharmSpec 3 (Hach Lange GmbH) software. […]

[3] = Surface tension measurement (dynamic surface tension, DST); conditions: mAb formulation at t0
Method: Surface tension measurements were performed by means of liquid handling stations according to a method described by Amrhein et al.[63]. Briefly, the measurement depends on the correlation between drop mass and the surface tension of the sample. For this study a fully automated liquid handling station Freedom 384 EVO 200 (Tecan, Crailsheim, Germany) was equipped with an analytical balance (Mettler Toledo, Columbus, USA). The system contains stainless fixed tips which aspirate the sample with 100 μL·s^−1 from a sealed 1 mL round bottom LoBind® Deepwell Plate (Eppendorf, Hamburg, Germany). The sample was dispensed with 3 μL·s^−1 to a second round bottom Deepwell Plate 96/500 μL (Eppendorf, Hamburg, Germany) mounted on an analytical balance. The weight was recorded continuously using fully automated routines written in Matlab R2017b (MathWorks, Natick, MA, USA). The surface tension of water (72.6 mN/m) was used as a reference for calculations. The mean of three individual measurements of the samples (at t0) is reported as surface tension.

Compound: C[C@H](CCC(=O)N(CCCNC(=O)[C@H](O)[C@@H](O)[C@H](O)[C@H](O)CO)CCCNC(=O)[C@H](O)[C@@H](O)[C@H](O)[C@H](O)CO)[C@H]1CC[C@H]2[C@@H]3CC[C@@H]4C[C@H](O)CC[C@]4(C)[C@H]3C[C@H](O)[C@]12C [DBC, Deoxy-BigCHAP]
effect on mAbs' conformational stability (model mAb): destabilizing effect
change of Tm1 (model mAb): slight decrease
change of Ton (model mAb; surfactant 1 and 10 mg/mL): slight decrease in Ton
visible particles initially (mAb 1 [1]; 1 mg/mL surfactant): many particles initially
particle formation upon shaking (mAb 1 [1]): particle formation particularly after agitation
SVP ≥10 μm per container after shaking (mAb 1 [1]): exceeded USP <787> criteria
solubility in formulation (mAb 1 [2]): solubility issues

Compound: C[C@H](CCC(=O)NCC(=O)[O-])[C@H]1CC[C@H]2[C@@H]3[C@H](O)C[C@@H]4C[C@H](O)CC[C@]4(C)[C@H]3C[C@H](O)[C@]12C.O.[Na+] [NaGC, sodium glycocholate hydrate]
change in thermal conformational stability properties (model mAb): strong decrease in thermal conformational stability properties

Compound: CCCCCCCCCCCCOS(=O)(=O)[O-].[Na+] [SDS, Sodium dodecyl sulfate, reference compound]
effect on Ton and Tm1 compared to reference formulation without surfactant (model mAb; surfactant 0.01 to 10 mg/mL): concentration dependent destabilizing effect

Compound: Chobimalt
effect on mAbs' conformational stability (model mAb): no impact
change of Ton (model mAb; surfactant 1 mg/mL or higher): slight increase of Ton
color after shaking stress (mAb 1 [1]): strong change in color
stabilizing effect upon F/T studies (mAb 1 [1]; 5 freeze-thaw cycles): missing stabilizing effect at the interface
particle formation upon shaking (mAb 1 [1]): strongest particle formation upon shaking
SVP ≥10 μm per container after shaking (mAb 1 [1]): exceeded USP <787> criteria
dynamic surface tension [3]: around 73 mN/m

Compound: sodium deoxy cholate [NaDC]
change in thermal conformational stability properties (model mAb): strong decrease in thermal conformational stability properties

Continued, values first:

effect on mAbs' conformational stability (model mAb): destabilizing effect
change of Tm1 (model mAb): comparable destabilizing effect
change of Ton (model mAb; surfactant 1 and 10 mg/mL): comparable destabilizing effect
Compound: CCCCCCCCCC(=O)N(CCO)C[C@H](O)[C@@H](O)[C@H](O)[C@H](O)CO [HEGA-10, decanoyl-N-hydroxyethylglucamide]

effect on mAbs' conformational stability (model mAb): destabilizing effect
change of Tm1 (model mAb): comparable destabilizing effect
change of Ton (model mAb; surfactant 1 and 10 mg/mL): comparable destabilizing effect
Compound: CCCCCCCCC(=O)N(C)C[C@H](O)[C@@H](O)[C@H](O)[C@H](O)CO [MEGA-9, nonanoyl-N-methylglucamide]
